Experimental data published in US9986723B2, “Screen and use of therapeutics for pancreatic ductal adenocarcinoma” (The Board of Regents of the University of Texas System, priority 2014, dated 2018).

Columns and labels:
Capan-1 tumors = assay: Low dose warfarin in drinking water, orthotopic human tumor xenograft; format: in vivo, mouse
Method: (§1) (FIG. 23A) Primary tumor burden after therapy with warfarin. Therapy was initiated when implanted tumors were visible by ultrasound (˜10 mm^3) and consisted of control (normal drinking water) or warfarin, administered in the drinking water at 0.5 mg/L (immunocompetent mice: Pan02 (n=4, control; 3, warfarin), KIC (n=10, control; 8, warfarin)) or 1 mg/L (Panc-1 (n=10, control; 8, warfarin), AsPC-1 (n=8, control; 6, warfarin), Capan-1 (n=10, control; 7, warfarin)) and continued for 2-4 weeks until control mice were moribund. Therapy in KIC mice was initiated at 3 weeks of age and continued for 4 weeks. (FIG. 23B) Metastases were determined grossly upon sacrifice and confirmed by histological evaluation of the liver. […] Incidence of metastasis is also indicated. […] Tumor volume determined by serial ultrasound. […] Therapy with mAb 10C9 (250 μg 2×/week) was initiated when tumors were established as above and persisted for 4 weeks. […] Error bars indicate s.e.m.
(§2) Animal studies. All animals were housed in a pathogen-free facility with 24-hour access to food and water. Experiments were approved by, and conducted in accordance with, an IACUC approved protocol at UT Southwestern. LSL-Kras^G12D; Cdkn2a^lox/lox; p48^Cre (KIC) mice were generated as previously described (Ostapoff et al., 2014). Four- to 6-week-old female NOD/SCID and C57/B16 mice were obtained from an on campus supplier. A total of 1×10^6 AsPc-1, Panc-1, Mia Paca2, Capan-1, C5LM2, Mia shLuc and Mia shAxl or 5×10^5 Pan02 cells, were injected orthotopically as described (Ostapoff et al., 2014). Mice with established tumors, as determined by sonography were randomized to receive normal drinking water or water containing 1 mg/L (˜3.0 μM) warfarin for experiments in immunocompromised mice and 0.5 mg/L (˜1.5 μM) in experiments in immunocompetent animals with or without gemcitabine 25 mg/kg twice weekly depending on experimental design.

AsPC1 tumors = assay: as above; format: in vivo, mouse; settings: warfarin 1 mg/L drinking water
Method: as §1, §2

Panc-1 cells = assay: In vitro EMT assay (TGF-β and collagen); format: cell-based, human; settings: warfarin 2 μM
Method: FIGS. 26A-C. […] (FIG. 26A) the expression level of pAxl, Zeb1 and nuclear β-catenin in Panc1 cells in vitro was measured by immunofluorescence under normal culture conditions or after growth on collagen matrix and treatment with TGF-β (20 ng/ml) to induce epithelial to mesenchymal transition, with or without warfarin (2 μM). p-Axl was normalized to total Axl area. (FIG. 26B) Panc1 cells were treated with either SFM, recombinant Gas 6 (100 ng/ml) or Gas6 following pretreatment with 10C9 (mAb anti-Axl). Transition to a mesenchymal phenotype was characterized by changes in vimentin and nuclear Zeb1 expression determined by immunofluoresence. […] (FIG. 26C) Paraffin embedded sections of Panc-1 tumors were analyzed by immunofluorescence for markers of EMT.

[1] = system: pancreatic ductal adenocarcinoma (PDA) metastases; assay: Metastatic burden in five murine models of PDA under low dose warfarin; format: in vivo, mouse; settings: four of the five PDA models; warfarin 0.5-1 mg/L drinking water
Method: as §1
Animal studies. […] Mice with established tumors, as determined by sonography were randomized to receive normal drinking water or water containing 1 mg/L (˜3.0 μM) warfarin for experiments in immunocompromised mice and 0.5 mg/L (˜1.5 μM) in experiments in immunocompetent animals with or without gemcitabine 25 mg/kg twice weekly depending on experimental design.

Mia PaCa-2 cells = assay: Spheroid assay in matrigel (3D culture); format: cell-based, human; settings: warfarin 200 ng/ml, 7 days
Method: FIGS. 25A-I. Axl inhibition reduces colony formation and enhances chemotherapy. (FIGS. 25A-C) parental Mia PaCa-2 cells or Mia PaCa-2 cells stably transfected with shRNA targeting Axl (Mia shAxl) were grown as spheroids in matrigel for 7 days in the presence or absence of warfarin (200 ng/ml), n=4/condition. Mia PaCa-2 cell colonies form large stellate colonies characteristic of invasive tumor growth. Colonies and cognate cell projections were imaged (FIG. 25A) with a Nikon Phase contrast microscope using 40× and 200× magnification. Mean total colony number (FIG. 25B) and total colony area+/−s.d. (FIG. 25C) reflective of invasive growth were calculated using Image J image analysis. […] (FIG. 25E) liver metastases were quantified after intrasplenic injection of C5LM2 cells. […] Mice were sacrificed when control treated animals were moribund and primary and metastatic burden was determined. […]
For spheroid assays, matrigel was coated on 18×18 mm glass cover-slides in a 35 mm culture dish, using Reduced Growth Factor Matrigel (BD Bioscience) as described previously (Gjerdrum et al., 2010; Lee et al., 2007). […] Quantitative analysis of 3D organotypic structures was performed using Image J analysis software. Total number of established structures and the ability of established structures to migrate into the BM (Total area) were quantified and compared.

## CC(=O)CC(c1ccccc1)c1c(O)c2ccccc2oc1=O (racemic) [Warfarin]
Capan-1 tumors; no detectable Axl expression
  response of tumors to warfarin: nonresponsive
Capan-1 tumors; warfarin 1 mg/L drinking water
  primary tumor growth: little effect
AsPC1 tumors
  primary tumor growth: little effect
Panc-1 cells; TGF-β 20 ng/ml, collagen
  Zeb1 and nuclear β-catenin levels: significantly reduced
Panc-1 cells
  TGFβ and collagen I enhanced Axl expression and activation: blocked
[1]
  metastatic burden: consistently and potently inhibited metastatic burden
Mia PaCa-2 cells
  tumor cell sphere formation and invasiveness in 3D culture: inhibited
